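Tested at 5 concentrations; 48 h exposure; 96-well plates; endpoints linearly interpolated, else capped at highest concentration. At the GI50, growth is halved.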 Activity calls are given as the source filed them. Cut-off read from the data, not from the text of the source: active = GI50 up to about 1.1 µM and inactive = higher.
Columns and labels:
Assay in all cases: NCI-60 cell line screen, 48 h
MDA-MB-435 = tested on: MDA-MB-435
SF-539 = tested on: SF-539
A549 = tested on: A549
K562 = tested on: K562
NCI-H460 = tested on: NCI-H460
SNB-75 = tested on: SNB-75
SF-268 = tested on: SF-268
NCI-H226 = tested on: NCI-H226
CAKI-1 = tested on: CAKI-1
TK-10 = tested on: TK-10
EKVX = tested on: EKVX
OVCAR-5 = tested on: OVCAR-5
MCF7 = tested on: MCF7
U-251 = tested on: U-251
SK-MEL-5 = tested on: SK-MEL-5
HCT-116 = tested on: HCT-116
RXF 393 = tested on: RXF 393
MOLT-4 = tested on: MOLT-4
HOP-92 = tested on: HOP-92
NCI-H23 = tested on: NCI-H23
RPMI-8226 = tested on: RPMI-8226
MDA-MB-231 = tested on: MDA-MB-231
HL-60 = tested on: HL-60
UACC-257 = tested on: UACC-257
UACC-62 = tested on: UACC-62
M14 = tested on: M14
HCC 2998 = tested on: HCC 2998
OVCAR-8 = tested on: OVCAR-8
T47D = tested on: T47D
LOX IMVI = tested on: LOX IMVI
SK-MEL-28 = tested on: SK-MEL-28
IGROV-1 = tested on: IGROV-1
SK-MEL-2 = tested on: SK-MEL-2
A498 = tested on: A498
NCI-H522 = tested on: NCI-H522
786-0 = tested on: 786-0
SK-OV-3 = tested on: SK-OV-3
HOP-62 = tested on: HOP-62
Hs-578T = tested on: Hs-578T
BT-549 = tested on: BT-549
SF-295 = tested on: SF-295
KM12 = tested on: KM12
SN12C = tested on: SN12C
COLO 205 = tested on: COLO 205
MDA-N = tested on: MDA-N
DU-145 = tested on: DU-145
UO-31 = tested on: UO-31
OVCAR-3 = tested on: OVCAR-3
SW-620 = tested on: SW-620
ACHN = tested on: ACHN
HT-29 = tested on: HT-29
PC-3 = tested on: PC-3
HCT-15 = tested on: HCT-15
OVCAR-4 = tested on: OVCAR-4
NCI/ADR-RES = tested on: NCI/ADR-RES
SNB-19 = tested on: SNB-19
CCRF-CEM = tested on: CCRF-CEM
SR = tested on: SR
Malme-3M = tested on: Malme-3M

For `COC(=O)C1Cc2c([nH]c3ccccc23)C(c2cccc(O)c2)N1` (stereo not drawn), the GI50 (MDA-MB-435) was 18.2 µM (inactive), the GI50 (SF-539) was 33.4 µM (inactive) and the GI50 (A549) was 41 µM (inactive). For the same compound, the GI50 (K562) was 33.1 µM (inactive), the GI50 (NCI-H460) was 26.3 µM (inactive) and the GI50 (SNB-75) was 23.6 µM (inactive). The GI50 (SF-268) was 40.8 µM (inactive), the GI50 (NCI-H226) was 40.7 µM (inactive) and the GI50 (CAKI-1) was 57 µM (inactive). The GI50 (TK-10) was > 100 µM (inactive), the GI50 (EKVX) was 40.3 µM (inactive) and the GI50 (OVCAR-5) was 28.8 µM (inactive). For the same compound, the GI50 (MCF7) was 27.3 µM (inactive), the GI50 (U-251) was 35 µM (inactive) and the GI50 (SK-MEL-5) was 40.9 µM (inactive). For the same compound, the GI50 (HCT-116) was 35.7 µM (inactive), the GI50 (RXF 393) was 25.8 µM (inactive) and the GI50 (MOLT-4) was 31.6 µM (inactive). The GI50 (HOP-92) was 28.4 µM (inactive), the GI50 (NCI-H23) was 29.8 µM (inactive) and the GI50 (RPMI-8226) was 28.4 µM (inactive). The GI50 (MDA-MB-231) was 22.3 µM (inactive), the GI50 (HL-60) was 22.2 µM (inactive) and the GI50 (UACC-257) was 90.8 µM (inactive). For the same compound, the GI50 (UACC-62) was 44.2 µM (inactive), the GI50 (M14) was 21.3 µM (inactive) and the GI50 (HCC 2998) was 25.6 µM (inactive). The GI50 (OVCAR-8) was 32.1 µM (inactive), the GI50 (T47D) was 41.5 µM (inactive) and the GI50 (LOX IMVI) was 50.7 µM (inactive). For the same compound, the GI50 (SK-MEL-28) was 28.7 µM (inactive), the GI50 (IGROV-1) was 37.8 µM (inactive) and the GI50 (SK-MEL-2) was 27 µM (inactive). The GI50 (A498) was 42.9 µM (inactive), the GI50 (NCI-H522) was 33.6 µM (inactive) and the GI50 (786-0) was 49.1 µM (inactive). For the same compound, the GI50 (SK-OV-3) was 56.4 µM (inactive), the GI50 (HOP-62) was 75.9 µM (inactive) and the GI50 (Hs-578T) was 37.4 µM (inactive). The GI50 (BT-549) was 22.3 µM (inactive), the GI50 (SF-295) was 45.7 µM (inactive) and the GI50 (KM12) was 32.1 µM (inactive). The GI50 (SN12C) was 40.9 µM (inactive), the GI50 (COLO 205) was 30.5 µM (inactive) and the GI50 (MDA-N) was 19.5 µM (inactive). For the same compound, the GI50 (DU-145) was 23.4 µM (inactive), the GI50 (UO-31) was 80 µM (inactive) and the GI50 (OVCAR-3) was 42 µM (inactive). For the same compound, the GI50 (SW-620) was 24.3 µM (inactive), the GI50 (ACHN) was 60 µM (inactive) and the GI50 (HT-29) was 27.6 µM (inactive). The GI50 (PC-3) was 27.3 µM (inactive), the GI50 (HCT-15) was 34 µM and the GI50 (OVCAR-4) was 41.2 µM (inactive). For the same compound, the GI50 (NCI/ADR-RES) was 22.9 µM (inactive), the GI50 (SNB-19) was 42.5 µM (inactive) and the GI50 (CCRF-CEM) was 19 µM (inactive). The GI50 (SR) was 28.2 µM (inactive).

With `COc1ccc(SCc2cc(OCc3ccccc3)c(OCc3ccccc3)c(OCc3ccccc3)c2)cc1` the GI50 (MDA-MB-435) was 1.76 µM (inactive), the GI50 (SF-539) was 1.93 µM (inactive) and the GI50 (A549) was 2.16 µM (inactive). For the same compound, the GI50 (K562) was 1.21 µM (inactive), the GI50 (NCI-H460) was 2.38 µM (inactive) and the GI50 (SNB-75) was 1.58 µM (inactive). The GI50 (SF-268) was 1.77 µM (inactive), the GI50 (NCI-H226) was 1.9 µM (inactive) and the GI50 (CAKI-1) was 1.6 µM (inactive). The GI50 (TK-10) was 1.89 µM (inactive), the GI50 (EKVX) was 2 µM (inactive) and the GI50 (OVCAR-5) was 1.62 µM (inactive). For the same compound, the GI50 (MCF7) was 1.71 µM (inactive), the GI50 (U-251) was 1.77 µM (inactive) and the GI50 (SK-MEL-5) was 1.84 µM (inactive). The GI50 (HCT-116) was 1.75 µM (inactive), the GI50 (RXF 393) was 1.92 µM (inactive) and the GI50 (MOLT-4) was 1.56 µM (inactive). The GI50 (HOP-92) was 1.65 µM (inactive), the GI50 (Malme-3M) was 1.83 µM (inactive) and the GI50 (NCI-H23) was 1.75 µM (inactive). For the same compound, the GI50 (RPMI-8226) was 2.84 µM (inactive), the GI50 (MDA-MB-231) was 1.36 µM (inactive) and the GI50 (HL-60) was 1.87 µM (inactive). The GI50 (UACC-257) was 1.71 µM (inactive), the GI50 (UACC-62) was 2.11 µM (inactive) and the GI50 (M14) was 1.92 µM (inactive). For the same compound, the GI50 (HCC 2998) was 1.43 µM (inactive), the GI50 (OVCAR-8) was 1.78 µM (inactive) and the GI50 (T47D) was 2.69 µM (inactive). The GI50 (LOX IMVI) was 1.54 µM (inactive), the GI50 (SK-MEL-28) was 2.07 µM (inactive) and the GI50 (IGROV-1) was 1.79 µM (inactive). The GI50 (A498) was 2.06 µM (inactive), the GI50 (NCI-H522) was 1.83 µM (inactive) and the GI50 (786-0) was 1.55 µM (inactive). For the same compound, the GI50 (SK-OV-3) was 1.77 µM (inactive), the GI50 (HOP-62) was 1.81 µM (inactive) and the GI50 (Hs-578T) was 2.12 µM (inactive). For the same compound, the GI50 (BT-549) was 2.24 µM (inactive), the GI50 (SF-295) was 1.87 µM (inactive) and the GI50 (KM12) was 1.64 µM (inactive). The GI50 (SN12C) was 1.79 µM (inactive), the GI50 (COLO 205) was 2.85 µM (inactive) and the GI50 (MDA-N) was 1.83 µM (inactive). For the same compound, the GI50 (DU-145) was 1.75 µM (inactive), the GI50 (UO-31) was 1.76 µM (inactive) and the GI50 (OVCAR-3) was 1.65 µM (inactive). The GI50 (SW-620) was 1.7 µM (inactive), the GI50 (ACHN) was 1.73 µM (inactive) and the GI50 (HT-29) was 1.52 µM (inactive). For the same compound, the GI50 (PC-3) was 1.92 µM (inactive), the GI50 (HCT-15) was 1.84 µM and the GI50 (OVCAR-4) was 1.8 µM (inactive). The GI50 (NCI/ADR-RES) was 1.71 µM (inactive), the GI50 (SNB-19) was 1.72 µM (inactive) and the GI50 (CCRF-CEM) was 1.72 µM (inactive). For the same compound, the GI50 (SR) was 0.493 µM (active).

`COc1cc(O)c(C(=O)/C=C/c2ccccc2)c(OC)c1` [FLAVOKAWAIN B] was tested, and the GI50 (MDA-MB-435) was 4.71 µM (inactive), the GI50 (SF-539) was 3.78 µM (inactive) and the GI50 (A549) was 10.3 µM (inactive). The GI50 (NCI-H460) was 3.54 µM (inactive), the GI50 (SF-268) was 4.98 µM (inactive) and the GI50 (NCI-H226) was 4.15 µM (inactive). The GI50 (CAKI-1) was 5.28 µM (inactive), the GI50 (TK-10) was 6.55 µM (inactive) and the GI50 (EKVX) was 10.4 µM (inactive). For the same compound, the GI50 (OVCAR-5) was 23.9 µM (inactive), the GI50 (MCF7) was 7.8 µM (inactive) and the GI50 (U-251) was 4.6 µM (inactive). The GI50 (SK-MEL-5) was 9.27 µM (inactive), the GI50 (HCT-116) was 5.64 µM (inactive) and the GI50 (RXF 393) was 12.5 µM (inactive). For the same compound, the GI50 (MOLT-4) was 5.37 µM (inactive), the GI50 (HOP-92) was 3.72 µM (inactive) and the GI50 (Malme-3M) was 4.61 µM (inactive). The GI50 (NCI-H23) was 5.97 µM (inactive), the GI50 (RPMI-8226) was 3.85 µM (inactive) and the GI50 (MDA-MB-231) was 7.64 µM (inactive). For the same compound, the GI50 (HL-60) was 1.21 µM (inactive), the GI50 (UACC-257) was 10.8 µM (inactive) and the GI50 (UACC-62) was 4.14 µM (inactive). For the same compound, the GI50 (M14) was 7.94 µM (inactive), the GI50 (HCC 2998) was 2.97 µM (inactive) and the GI50 (OVCAR-8) was 3.64 µM (inactive). The GI50 (T47D) was 6.82 µM (inactive), the GI50 (LOX IMVI) was 2.29 µM (inactive) and the GI50 (SK-MEL-28) was 3.34 µM (inactive). The GI50 (IGROV-1) was 4.53 µM (inactive), the GI50 (SK-MEL-2) was 4.62 µM (inactive) and the GI50 (A498) was 4.43 µM (inactive). For the same compound, the GI50 (NCI-H522) was 2.42 µM (inactive), the GI50 (786-0) was 4.62 µM (inactive) and the GI50 (SK-OV-3) was 11.6 µM (inactive). For the same compound, the GI50 (HOP-62) was 12 µM (inactive), the GI50 (Hs-578T) was 3.2 µM (inactive) and the GI50 (BT-549) was 4.47 µM (inactive). The GI50 (SF-295) was 13 µM (inactive), the GI50 (KM12) was 3.52 µM (inactive) and the GI50 (SN12C) was 3.29 µM (inactive). The GI50 (COLO 205) was 14.5 µM (inactive), the GI50 (MDA-N) was 3.78 µM (inactive) and the GI50 (DU-145) was 7.73 µM (inactive). The GI50 (UO-31) was 5.83 µM (inactive), the GI50 (OVCAR-3) was 7.1 µM (inactive) and the GI50 (SW-620) was 3.85 µM (inactive). For the same compound, the GI50 (ACHN) was 8.73 µM (inactive), the GI50 (HT-29) was 7.66 µM (inactive) and the GI50 (PC-3) was 6.1 µM (inactive). For the same compound, the GI50 (HCT-15) was 4.51 µM, the GI50 (OVCAR-4) was 8 µM (inactive) and the GI50 (NCI/ADR-RES) was 3.8 µM (inactive). The GI50 (SNB-19) was 3.47 µM (inactive), the GI50 (CCRF-CEM) was 2.27 µM (inactive) and the GI50 (SR) was 1.85 µM (inactive).
